# Source: ChEMBL document CHEMBL5053508, “Optimization of Beclin 1-Targeting Stapled Peptides by Staple Scanning Leads to Enhanced Antiproliferative Potency in Cancer Cells” (J Med Chem, 2021)
# Active and inactive are the calls of the source. The calls are words filed in the database; no cut-off is given here.
# What was measured:
# [1] = system: HEK293T; experiment: Induction of FLAG tagged Beclin 1- Atg14L interaction in HEK293T cells assessed as increase in endogenous beclin 1 pull down at 30 uM by coimmunoprecipitation assay; format: cell-based; conditions: Homo sapiens
# [2] = system: SK-BR-3; experiment: Induction of apoptosis in human SK-BR-3 cells assessed as increase in cell death at 10 uM in presence of Z-VAD-FMK measured after 24 hrs by trypan blue exclusion assay; format: functional, cell-based
# [3] = system: SK-BR-3; experiment: Antiproliferative activity against human SK-BR-3 cells assessed as reduction of cell growth measured after 24 hrs by trypan blue exclusion assay; conditions: SK-BR-3, 24 h
# [4] = system: SK-BR-3; experiment: Induction of apoptosis in human SK-BR-3 cells assessed as late apoptotic cells at 10 uM incubated for 24 hrs by flow cytometry with Annexin V-FITC/propidium iodide staining based flow cytometry assay (Rvb= 2.2%); format: functional
# [5] = target: Receptor tyrosine-protein kinase erbB-2 (Homo sapiens) (UniProt P04626); experiment: Induction of endolysosomal trafficking of HER2 in human SK-BR-3 cells assessed as EGF-induced degradation of HER2 at 2 uM measured after 24 hrs post-EGF stimulation by western blot analysis relative to control; format: cell-based
# [6] = system: HEK293T; experiment: Induction of FLAG tagged Beclin 1- Atg14L interaction in HEK293T cells assessed as increase in endogenous beclin 1 pull down at 10 to 20 uM by coimmunoprecipitation assay; format: cell-based; conditions: Homo sapiens, dose 10-20 µM
# [7] = system: HEK-293T; experiment: Induction of autophagy in human HEK293T cells assessed as increase in LC3-II protein level at 10 to 20 uM in presence of chloroquine measured after 3 hrs by western blot analysis; format: functional, cell-based; conditions: dose 10-20 µM
# [8] = target: Receptor tyrosine-protein kinase erbB-2 (Homo sapiens) (UniProt P04626); experiment: Induction of endolysosomal trafficking of HER2 in human SK-BR-3 cells assessed as EGF-induced degradation of HER2 at 2 uM measured after 15 hrs post-EGF stimulation by western blot analysis relative to control; format: cell-based
# [9] = system: HEK-293T; experiment: Induction of autophagy in human HEK293T cells assessed as increase in p62 protein level at 10 to 20 uM in presence of chloroquine measured after 3 hrs by western blot analysis; format: functional, cell-based; conditions: dose 10-20 µM
# [10] = system: SK-BR-3; experiment: Induction of apoptosis in human SK-BR-3 cells assessed as increase in cleaved PARP level at 10 uM incubated for 24 hrs by western blot analysis; format: functional, cell-based
# [11] = system: SK-BR-3; experiment: Induction of apoptosis in human SK-BR-3 cells assessed as live cells at 5 uM measured after 24 hrs by annexin V-FITC/PI staining based flow cytometry analysis (Rvb= 90.6%); format: functional
# [12] = system: SK-BR-3; experiment: Induction of apoptosis in human SK-BR-3 cells assessed as dead cells at 5 uM measured after 24 hrs by annexin V-FITC/PI staining based flow cytometry analysis (Rvb= 5.0%); format: functional
# [13] = system: SK-BR-3; experiment: Induction of apoptosis […] in human SK-BR-3 cells assessed as late apoptotic cells at 5 uM incubated for 24 hrs by flow cytometry with Annexin V-FITC/propidium iodide staining based flow cytometry analysis (Rvb= 2.2%); format: functional
# [14] = system: SK-BR-3; experiment: Induction of apoptosis in human SK-BR-3 cells assessed as early apoptotic cells at 5 uM measured after 24 hrs by annexin V-FITC/PI staining based flow cytometry analysis (Rvb= 2.2%); format: functional
# [15] = system: SK-BR-3; experiment: Antiproliferative activity against human SK-BR-3 cells assessed as reduction in cell growth incubated for 5 days by trypan blue exclusion assay; format: functional, cell-based; conditions: time 5.0 day
# [16] = system: HEK-293T; experiment: Cytotoxicity against HEK293T cells assessed as reduction in cell viability at 10 to 20 uM measured after 24 hrs by trypan blue exclusion assay; format: cell-based; conditions: human, dose 10-20 µM
# [17] = system: HEK293T; experiment: Induction of Beclin 1- FLAG tagged UVRAG interaction in HEK293T cells assessed as endogenous beclin 1 pull down at 10 uM by coimmunoprecipitation assay; format: cell-based; conditions: Homo sapiens
# [18] = system: SK-BR-3; experiment: Induction of apoptosis in human SK-BR-3 cells assessed as dead cells at 10 uM measured after 24 hrs by annexin V-FITC/PI staining based flow cytometry analysis (Rvb= 5.0%); format: functional
# [19] = system: HEK-293T; experiment: Induction of autophagy in HEK293T cells assessed as increase in LC3-II protein level at 10 to 20 uM incubated for 3 hrs by western blot analysis; format: functional, cell-based; conditions: Homo sapiens, dose 10-20 µM
# [20] = system: SK-BR-3; experiment: Induction of apoptosis in human SK-BR-3 cells assessed as live cells at 10 uM measured after 24 hrs by annexin V-FITC/PI staining based flow cytometry analysis (Rvb= 90.6%); format: functional
# [21] = system: HEK-293T; experiment: Induction of autophagy in human HEK293T cells assessed as increase in p62 protein level at 10 to 20 uM measured after 3 hrs by western blot analysis; format: functional, cell-based; conditions: dose 10-20 µM
# [22] = system: SK-BR-3; experiment: Induction of apoptosis in human SK-BR-3 cells assessed as increase in cleaved caspase-3 level at 10 uM incubated for 24 hrs by western blot analysis; format: functional, cell-based
# [23] = system: SK-BR-3; experiment: Induction of apoptosis in human SK-BR-3 cells assessed as early apoptotic cells at 10 uM measured after 24 hrs by annexin V-FITC/PI staining based flow cytometry analysis (Rvb= 2.2%); format: functional
# [24] = target: T1, Beclin-1 (Homo sapiens, UniProt Q14457); experiment: Inhibition of FLAG-tagged Beclin 1 self-association in HEK293T cells cotransfected with GFP assessed as reduction in beclin 1- GFP pull down by FLAG-beclin 1 by coimmunoprecipitation assay; format: cell-based
# [25] = target: Epidermal growth factor receptor (Homo sapiens) (UniProt P00533); experiment: Induction of endolysosomal trafficking of EGFR in human SK-BR-3 cells assessed as EGF-induced degradation of EGFR at 2 uM measured after 15 hrs post-EGF stimulation by western blot analysis relative to control; format: cell-based
# [26] = target: T1, Beclin-1; experiment: Binding affinity to Beclin 1 coiled coil domain (unknown origin) by isothermal titration calorimetry assay
# [27] = system: SK-BR-3; experiment: Induction of apoptosis in human SK-BR-3 cells assessed as dead cells at 1 uM measured after 24 hrs by annexin V-FITC/PI staining based flow cytometry analysis (Rvb= 5.0%); format: functional
# [28] = system: SK-BR-3; experiment: Induction of apoptosis in human SK-BR-3 cells assessed as early apoptotic cells at 1 uM measured after 24 hrs by annexin V-FITC/PI staining based flow cytometry analysis (Rvb= 2.2%); format: functional
# [29] = system: SK-BR-3; experiment: Induction of apoptosis in human SK-BR-3 cells assessed as increase in cell death at 5 uM in presence of Z-VAD-FMK measured after 24 hrs by trypan blue exclusion assay; format: functional, cell-based
# [30] = system: SK-BR-3; experiment: Induction of apoptosis in human SK-BR-3 cells assessed as live cells at 1 uM measured after 24 hrs by annexin V-FITC/PI staining based flow cytometry analysis (Rvb= 90.6%); format: functional
# [31] = system: SK-BR-3; experiment: Induction of apoptosis in human SK-BR-3 cells assessed as late apoptotic cells at 1 uM incubated for 24 hrs by flow cytometry with Annexin V-FITC/propidium iodide staining based flow cytometry assay (Rvb= 2.2%); format: functional
# [32] = system: SK-BR-3; experiment: Induction of apoptosis in human SK-BR-3 cells assessed as increase in cleaved PARP expression at 0.15 uM incubated for 48 hrs by western blot analysis; format: functional, cell-based
# [33] = system: SK-BR-3; experiment: Induction of apoptosis in human SK-BR-3 cells assessed as increase in cleaved caspase-3 expression at 0.15 uM incubated for 48 hrs by western blot analysis; format: functional, cell-based
# T1 sequence (Q14457 whole entry): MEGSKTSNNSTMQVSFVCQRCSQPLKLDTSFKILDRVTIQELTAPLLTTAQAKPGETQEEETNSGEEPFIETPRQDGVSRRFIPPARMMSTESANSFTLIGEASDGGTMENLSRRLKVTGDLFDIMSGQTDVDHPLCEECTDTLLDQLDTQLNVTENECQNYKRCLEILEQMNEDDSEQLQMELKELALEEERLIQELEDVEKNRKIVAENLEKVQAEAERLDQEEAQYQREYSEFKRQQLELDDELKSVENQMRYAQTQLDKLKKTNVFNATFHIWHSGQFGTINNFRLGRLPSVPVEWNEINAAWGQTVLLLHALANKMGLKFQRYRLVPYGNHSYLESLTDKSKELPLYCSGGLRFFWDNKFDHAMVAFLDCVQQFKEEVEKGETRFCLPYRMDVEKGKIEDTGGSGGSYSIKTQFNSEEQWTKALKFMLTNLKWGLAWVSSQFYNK
# Sequence of Receptor tyrosine-protein kinase erbB-2 (Homo sapiens) (P04626 whole entry): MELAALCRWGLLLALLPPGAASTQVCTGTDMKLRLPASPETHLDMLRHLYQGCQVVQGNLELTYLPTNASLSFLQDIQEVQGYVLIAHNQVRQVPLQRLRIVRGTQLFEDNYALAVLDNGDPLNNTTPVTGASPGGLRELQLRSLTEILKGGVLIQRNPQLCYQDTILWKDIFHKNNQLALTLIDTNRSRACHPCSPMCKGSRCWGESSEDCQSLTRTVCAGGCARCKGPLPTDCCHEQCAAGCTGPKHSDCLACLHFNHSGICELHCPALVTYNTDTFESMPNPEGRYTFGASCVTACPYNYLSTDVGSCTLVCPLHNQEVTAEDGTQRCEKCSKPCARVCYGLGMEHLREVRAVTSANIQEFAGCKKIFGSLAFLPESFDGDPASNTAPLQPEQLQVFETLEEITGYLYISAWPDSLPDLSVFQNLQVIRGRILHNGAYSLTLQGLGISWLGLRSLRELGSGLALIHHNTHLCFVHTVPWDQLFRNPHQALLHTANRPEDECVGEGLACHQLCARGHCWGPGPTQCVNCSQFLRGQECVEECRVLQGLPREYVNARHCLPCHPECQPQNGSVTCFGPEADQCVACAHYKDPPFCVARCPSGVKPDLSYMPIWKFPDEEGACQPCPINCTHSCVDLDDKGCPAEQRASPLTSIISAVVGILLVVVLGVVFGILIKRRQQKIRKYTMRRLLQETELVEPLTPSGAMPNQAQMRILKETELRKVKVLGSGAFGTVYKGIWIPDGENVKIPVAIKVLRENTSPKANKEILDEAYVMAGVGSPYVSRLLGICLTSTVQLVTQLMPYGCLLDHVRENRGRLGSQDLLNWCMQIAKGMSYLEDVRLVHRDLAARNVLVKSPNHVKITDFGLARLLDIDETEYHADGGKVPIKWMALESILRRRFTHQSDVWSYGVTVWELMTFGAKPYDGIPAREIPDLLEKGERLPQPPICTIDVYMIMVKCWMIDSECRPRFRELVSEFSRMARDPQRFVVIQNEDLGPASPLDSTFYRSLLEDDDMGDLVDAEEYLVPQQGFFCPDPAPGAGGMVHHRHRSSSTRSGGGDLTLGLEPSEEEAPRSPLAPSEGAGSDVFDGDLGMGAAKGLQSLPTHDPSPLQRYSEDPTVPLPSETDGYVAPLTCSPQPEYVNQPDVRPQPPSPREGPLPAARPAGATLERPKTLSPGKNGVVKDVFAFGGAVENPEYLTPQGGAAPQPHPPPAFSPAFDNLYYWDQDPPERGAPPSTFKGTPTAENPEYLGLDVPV
# Sequence of Epidermal growth factor receptor (Homo sapiens) (P00533 whole entry, the tested form may be a part): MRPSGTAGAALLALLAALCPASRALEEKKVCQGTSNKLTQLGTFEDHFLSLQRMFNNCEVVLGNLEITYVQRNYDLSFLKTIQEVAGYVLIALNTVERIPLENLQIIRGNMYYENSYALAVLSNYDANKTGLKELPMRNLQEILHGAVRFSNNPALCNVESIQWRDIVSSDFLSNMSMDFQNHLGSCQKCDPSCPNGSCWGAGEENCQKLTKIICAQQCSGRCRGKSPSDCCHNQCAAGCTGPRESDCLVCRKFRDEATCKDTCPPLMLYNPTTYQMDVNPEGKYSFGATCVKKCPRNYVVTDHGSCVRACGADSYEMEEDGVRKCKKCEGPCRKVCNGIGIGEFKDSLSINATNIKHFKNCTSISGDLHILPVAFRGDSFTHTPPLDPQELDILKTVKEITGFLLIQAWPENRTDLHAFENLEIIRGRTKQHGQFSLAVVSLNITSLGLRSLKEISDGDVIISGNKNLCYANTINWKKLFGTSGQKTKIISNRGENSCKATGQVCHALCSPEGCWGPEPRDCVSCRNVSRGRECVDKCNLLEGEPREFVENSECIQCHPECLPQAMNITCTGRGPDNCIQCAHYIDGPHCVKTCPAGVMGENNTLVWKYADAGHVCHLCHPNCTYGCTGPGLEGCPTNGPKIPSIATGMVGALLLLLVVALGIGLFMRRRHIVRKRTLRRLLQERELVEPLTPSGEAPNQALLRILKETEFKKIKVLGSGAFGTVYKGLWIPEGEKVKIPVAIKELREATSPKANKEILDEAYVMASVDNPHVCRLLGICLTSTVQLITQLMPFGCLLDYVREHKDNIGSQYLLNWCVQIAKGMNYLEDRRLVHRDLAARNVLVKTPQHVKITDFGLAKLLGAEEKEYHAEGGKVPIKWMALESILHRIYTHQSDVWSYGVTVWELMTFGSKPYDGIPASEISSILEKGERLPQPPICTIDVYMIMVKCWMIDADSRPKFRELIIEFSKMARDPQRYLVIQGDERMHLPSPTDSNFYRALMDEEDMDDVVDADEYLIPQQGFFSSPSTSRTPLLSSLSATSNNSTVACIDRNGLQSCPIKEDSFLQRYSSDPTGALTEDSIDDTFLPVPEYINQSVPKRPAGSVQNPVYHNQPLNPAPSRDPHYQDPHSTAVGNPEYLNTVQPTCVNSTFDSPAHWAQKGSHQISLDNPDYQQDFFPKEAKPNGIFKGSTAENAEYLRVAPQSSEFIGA
smiles,measurement,setting,value
CC[C@H](C)[C@@H]1NC(=O)[C@H](C(C)C)NC(=O)[C@H](CC(=O)O)NC(=O)[C@H](C(C)C)NC(=O)[C@H](CC(C)C)NC(=O)[C@H](NC(=O)[C@H](CC(N)=O)NC(=O)[C@H](Cc2ccccc2)NC(=O)[C@H](CC(C)C)NC(=O)[C@@H](NC(=O)[C@H](CCCNC(=N)N)NC(=O)[C@H](CCCNC(=N)N)NC(=O)[C@H](CCCNC(=N)N)NC(=O)[C@H](CCC(N)=O)NC(=O)[C@H](CCCNC(=N)N)NC(=O)[C@H](CCCNC(=N)N)NC(=O)[C@H](CCCCN)NC(=O)[C@H](CCCCN)NC(=O)[C@H](CCCNC(=N)N)NC(=O)CNC(=O)[C@H](Cc2ccc(O)cc2)NC(C)=O)C(C)C)CCCCCC/C=C/CCC[C@@H](C(=O)N[C@@H](CCCNC(=N)N)C(=O)N[C@@H](CCCCN)C(=O)N[C@H](C(N)=O)C(C)C)NC(=O)[C@H](CCCCN)NC1=O,Activity,[1],Active
same,Activity,[2],Active
same,IC50,[3],7.12 µM
same,Activity,[4],29.5%
same,Activity,[5],70%
same,Activity,[6],inactive
same,Activity,[7],Active
same,Activity,[8],50%
same,Activity,[9],inactive
same,Activity,[10],inactive
same,Activity,[11],81.1%
same,Activity,[12],0.6%
same,Activity,[13],13.3%
same,Activity,[14],2%
same,Activity,[15],Dose-dependent effect
same,Activity,[16],Non-Toxic
same,Activity,[17],Active
same,Activity,[18],1.2%
same,Activity,[19],Active
same,Activity,[20],69%
same,Activity,[21],inactive
same,Activity,[22],inactive
same,Activity,[23],0.3%
same,inhibition,[24],Dose-dependent effect
same,Activity,[25],60%
same,Kd,[26],0.33 µM
COc1cccc2c1C(=O)c1c(O)c3c(c(O)c1C2=O)C[C@@](O)(C(=O)CO)C[C@@H]3O[C@H]1C[C@H](N)[C@H](O)[C@H](C)O1 [DOXORUBICIN],Activity,[27],16.7%
same,Activity,[28],16.5%
same,Activity,[29],inactive
same,Activity,[30],48.1%
same,Activity,[31],18.7%
CC[C@H](C)[C@H](NC(=O)[C@H](CC(C)C)NC(=O)[C@H](CCCNC(=N)N)NC(=O)[C@H](CCCNC(=N)N)NC(=O)[C@H](CCCNC(=N)N)NC(=O)[C@H](CCCNC(=N)N)NC(=O)[C@H](CCC(N)=O)NC(=O)[C@H](CCCNC(=N)N)NC(=O)[C@H](CCCNC(=N)N)NC(=O)[C@H](CCCCN)NC(=O)[C@H](CCCCN)NC(=O)[C@H](CCCNC(=N)N)NC(=O)CNC(=O)[C@H](Cc1ccc(O)cc1)NC(C)=O)C(=O)N[C@H](C(=O)N[C@@H]1CCCCCC/C=C/CCC[C@@H](C(=O)N[C@@H](CCCNC(=N)N)C(=O)N[C@@H](CCCCN)C(=O)N[C@@H](CCCNC(=N)N)C(N)=O)NC(=O)[C@H](CCCCN)NC(=O)[C@H](CCC(=O)O)NC(=O)[C@H](C(C)C)NC(=O)[C@H](CC(=O)O)NC(=O)[C@H](CCC(=O)O)NC(=O)[C@H](CCC(N)=O)NC1=O)[C@@H](C)CC,Kd,[26],356 µM
CC(=O)O[C@H]1C(=O)[C@@]2(C)[C@H]([C@H](OC(=O)c3ccccc3)[C@]3(O)C[C@H](OC(=O)[C@H](O)[C@@H](NC(=O)c4ccccc4)c4ccccc4)C(C)=C1C3(C)C)[C@]1(OC(C)=O)CO[C@@H]1C[C@@H]2O,Activity,[32],Active
same,Activity,[33],Active
CC[C@H](C)[C@H](NC(=O)[C@@H](NC(=O)[C@H](CCCNC(=N)N)NC(=O)[C@H](CCCNC(=N)N)NC(=O)[C@H](CCCNC(=N)N)NC(=O)[C@H](CCCNC(=N)N)NC(=O)[C@H](CCC(N)=O)NC(=O)[C@H](CCCNC(=N)N)NC(=O)[C@H](CCCNC(=N)N)NC(=O)[C@H](CCCCN)NC(=O)[C@H](CCCCN)NC(=O)[C@H](CCCNC(=N)N)NC(=O)CNC(=O)[C@H](Cc1ccc(O)cc1)NC(C)=O)C(C)C)C(=O)N[C@@H](CCC(N)=O)C(=O)N[C@@H]1CCCCCC/C=C/CCC[C@@H](C(=O)N[C@@H](CCCNC(=N)N)C(=O)N[C@@H](CC(=O)O)C(=O)N[C@H](C(N)=O)C(C)C)NC(=O)[C@H](CCCCN)NC(=O)[C@H](CCC(=O)O)NC(=O)[C@H]([C@@H](C)CC)NC(=O)[C@H]([C@@H](C)CC)NC(=O)[C@H](C(C)C)NC(=O)[C@H](CC(C)C)NC1=O,IC50,[3],13.6 µM
same,Activity,[15],Dose-dependent effect
same,Activity,[16],Non-Toxic
CC(=O)N[C@@H](Cc1ccc(O)cc1)C(=O)NCC(=O)N[C@@H](CCCNC(=N)N)C(=O)N[C@@H](CCCCN)C(=O)N[C@@H](CCCCN)C(=O)N[C@@H](CCCNC(=N)N)C(=O)N[C@@H](CCCNC(=N)N)C(=O)N[C@@H](CCC(N)=O)C(=O)N[C@@H](CCCNC(=N)N)C(=O)N[C@@H](CCCNC(=N)N)C(=O)N[C@@H](CCCNC(=N)N)C(=O)N[C@@H](CCCNC(=N)N)C(=O)N[C@@H](CC(C)C)C(=O)N[C@@H](CC(C)C)C(=O)N[C@@H](CCC(N)=O)C(=O)N[C@@H]1CCCCCC/C=C/CCC[C@@H](C(=O)N[C@@H](CCCNC(=N)N)C(=O)N[C@@H](CO)C(=O)N[C@H](C(N)=O)C(C)C)NC(=O)[C@H](CCCCN)NC(=O)[C@H](CC(C)C)NC(=O)[C@H](C(C)C)NC(=O)[C@H]([C@@H](C)O)NC(=O)[C@H](CCCCN)NC(=O)[C@H](CC(C)C)NC1=O,Activity,[26],inactive
